Test results published in ChEMBL document CHEMBL5465560, “Selectivity Literature for EUbOPEN Chemogenomic Library” (2024).

Experiments:
[1] = biological target: T1, Membrane-associated tyrosine- and threonine-specific cdc2-inhibitory kinase (Homo sapiens) (UniProt Q99640); experiment: Selectivity interaction (KinomeScan (DiscoverX)) EUB0000595a PKMYT1; details: at 10 µM
T1 sequence (whole entry): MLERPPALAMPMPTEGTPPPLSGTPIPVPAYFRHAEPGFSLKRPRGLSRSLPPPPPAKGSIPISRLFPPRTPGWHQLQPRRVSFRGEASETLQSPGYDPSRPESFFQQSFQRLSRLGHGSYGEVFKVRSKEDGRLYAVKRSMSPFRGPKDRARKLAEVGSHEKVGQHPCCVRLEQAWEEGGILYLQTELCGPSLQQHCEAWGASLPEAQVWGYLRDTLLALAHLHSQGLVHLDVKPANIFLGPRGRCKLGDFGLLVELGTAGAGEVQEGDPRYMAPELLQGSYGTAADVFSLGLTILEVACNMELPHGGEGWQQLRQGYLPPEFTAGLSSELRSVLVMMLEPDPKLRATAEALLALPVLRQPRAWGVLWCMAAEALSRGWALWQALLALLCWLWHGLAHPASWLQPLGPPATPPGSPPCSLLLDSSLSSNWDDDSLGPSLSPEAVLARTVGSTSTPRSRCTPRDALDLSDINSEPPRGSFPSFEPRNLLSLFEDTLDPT

[2] = biological target: Gastrin/cholecystokinin type B receptor (Homo sapiens, UniProt P32239); experiment: Selectivity interaction (Cholecystokinin B receptor binding assay, human recombinant ) EUB0000877a CCKBR
Gastrin/cholecystokinin type B receptor, sequence (P32239 whole entry): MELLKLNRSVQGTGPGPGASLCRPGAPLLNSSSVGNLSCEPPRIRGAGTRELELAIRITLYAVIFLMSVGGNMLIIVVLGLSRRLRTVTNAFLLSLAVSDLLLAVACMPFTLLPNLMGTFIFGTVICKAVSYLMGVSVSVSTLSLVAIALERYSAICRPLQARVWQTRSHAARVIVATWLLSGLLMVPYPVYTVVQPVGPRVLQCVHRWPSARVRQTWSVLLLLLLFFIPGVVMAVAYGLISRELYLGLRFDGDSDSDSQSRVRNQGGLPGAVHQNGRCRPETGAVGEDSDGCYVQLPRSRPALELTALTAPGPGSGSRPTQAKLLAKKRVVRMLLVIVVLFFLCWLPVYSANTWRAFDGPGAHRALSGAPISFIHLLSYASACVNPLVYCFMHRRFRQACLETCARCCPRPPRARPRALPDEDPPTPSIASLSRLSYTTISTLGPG

[3] = biological target: Serine/threonine-protein kinase MARK1 (Homo sapiens) (UniProt Q9P0L2); experiment: Selectivity interaction (ProQinase) EUB0000171b MARK1
Serine/threonine-protein kinase MARK1 (Homo sapiens), sequence (Q9P0L2 whole entry, looked up): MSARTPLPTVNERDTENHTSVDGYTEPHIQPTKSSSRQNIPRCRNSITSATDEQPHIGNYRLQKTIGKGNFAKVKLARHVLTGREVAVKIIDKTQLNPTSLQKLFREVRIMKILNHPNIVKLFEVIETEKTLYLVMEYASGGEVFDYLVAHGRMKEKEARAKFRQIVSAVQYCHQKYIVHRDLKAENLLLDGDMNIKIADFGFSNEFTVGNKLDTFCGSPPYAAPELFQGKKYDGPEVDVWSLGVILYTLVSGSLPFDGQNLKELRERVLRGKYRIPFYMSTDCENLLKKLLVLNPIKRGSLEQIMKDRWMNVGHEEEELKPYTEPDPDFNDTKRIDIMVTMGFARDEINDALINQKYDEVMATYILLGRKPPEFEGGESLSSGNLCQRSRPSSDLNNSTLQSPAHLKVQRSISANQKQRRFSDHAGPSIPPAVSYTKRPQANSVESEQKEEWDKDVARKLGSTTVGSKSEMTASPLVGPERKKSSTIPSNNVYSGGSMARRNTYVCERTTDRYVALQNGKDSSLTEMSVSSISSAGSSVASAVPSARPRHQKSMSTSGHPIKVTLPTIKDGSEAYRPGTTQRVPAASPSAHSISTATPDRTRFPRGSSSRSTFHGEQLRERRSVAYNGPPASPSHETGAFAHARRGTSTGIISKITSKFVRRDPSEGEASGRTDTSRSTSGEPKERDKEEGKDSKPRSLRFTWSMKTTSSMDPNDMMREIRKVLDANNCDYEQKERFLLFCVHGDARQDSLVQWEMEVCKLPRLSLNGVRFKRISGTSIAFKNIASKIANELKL

[4] = biological target: Protein-tyrosine kinase 2-beta (Homo sapiens) (UniProt Q14289); experiment: Selectivity interaction (ActivX KiNativ screen (ex vivo kinase selectivity in human PBMCs)) EUB0001619a PTK2B; type: cell-based; details: PBMC, at 1 µM
Protein-tyrosine kinase 2-beta (Homo sapiens), sequence (Q14289 whole entry, looked up): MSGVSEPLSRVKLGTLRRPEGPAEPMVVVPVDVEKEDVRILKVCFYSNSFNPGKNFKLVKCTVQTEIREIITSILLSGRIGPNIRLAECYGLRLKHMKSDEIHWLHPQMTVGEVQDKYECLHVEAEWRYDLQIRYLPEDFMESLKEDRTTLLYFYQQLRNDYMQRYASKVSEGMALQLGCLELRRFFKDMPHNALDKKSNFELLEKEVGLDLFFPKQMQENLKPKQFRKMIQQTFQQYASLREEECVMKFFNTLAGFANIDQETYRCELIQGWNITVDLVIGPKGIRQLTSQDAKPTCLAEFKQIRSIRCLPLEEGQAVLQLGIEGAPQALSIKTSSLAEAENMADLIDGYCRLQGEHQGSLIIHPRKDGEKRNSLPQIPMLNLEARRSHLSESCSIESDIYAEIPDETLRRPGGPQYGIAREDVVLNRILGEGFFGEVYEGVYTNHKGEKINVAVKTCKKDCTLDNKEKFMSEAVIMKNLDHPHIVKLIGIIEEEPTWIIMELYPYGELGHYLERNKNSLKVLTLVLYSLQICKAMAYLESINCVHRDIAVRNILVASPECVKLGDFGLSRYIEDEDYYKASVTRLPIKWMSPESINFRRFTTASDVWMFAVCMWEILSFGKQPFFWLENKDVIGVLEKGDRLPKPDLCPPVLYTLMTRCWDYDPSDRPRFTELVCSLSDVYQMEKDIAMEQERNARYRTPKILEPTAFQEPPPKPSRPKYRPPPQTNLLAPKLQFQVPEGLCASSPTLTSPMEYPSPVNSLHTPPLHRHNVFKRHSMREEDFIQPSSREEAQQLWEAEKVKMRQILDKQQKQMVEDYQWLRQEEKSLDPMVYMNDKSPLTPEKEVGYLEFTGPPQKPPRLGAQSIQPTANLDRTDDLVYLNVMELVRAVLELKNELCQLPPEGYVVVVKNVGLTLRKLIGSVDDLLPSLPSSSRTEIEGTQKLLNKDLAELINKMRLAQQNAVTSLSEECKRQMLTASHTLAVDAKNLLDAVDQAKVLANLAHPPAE

[5] = biological target: Rho-associated protein kinase 2 (Homo sapiens, UniProt O75116); experiment: Selectivity interaction (SelectScreen profiling (Invitrogen)) EUB0000607a ROCK2; details: at 2 µM
[6] = biological target: Casein kinase I isoform delta (Homo sapiens, UniProt P48730); experiment: Selectivity interaction (SelectScreen profiling (Invitrogen)) EUB0000607a CSNK1D; details: at 2 µM
Casein kinase I isoform delta, sequence (P48730 whole entry, looked up, canonical isoform): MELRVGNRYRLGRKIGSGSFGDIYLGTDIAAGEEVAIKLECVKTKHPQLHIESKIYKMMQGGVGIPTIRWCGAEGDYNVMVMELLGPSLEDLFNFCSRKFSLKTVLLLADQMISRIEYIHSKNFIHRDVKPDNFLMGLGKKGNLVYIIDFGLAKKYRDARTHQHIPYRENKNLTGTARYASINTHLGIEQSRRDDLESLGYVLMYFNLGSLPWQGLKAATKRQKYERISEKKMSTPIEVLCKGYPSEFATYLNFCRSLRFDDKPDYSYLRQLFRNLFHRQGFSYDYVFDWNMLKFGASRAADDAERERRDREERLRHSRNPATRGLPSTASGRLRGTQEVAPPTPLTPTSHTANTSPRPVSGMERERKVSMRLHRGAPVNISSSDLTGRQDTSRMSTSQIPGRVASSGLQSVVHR

[7] = biological target: T2, Myosin light chain kinase family member 4 (Homo sapiens) (UniProt Q86YV6); experiment: Selectivity interaction (KinomeScan (DiscoverX)) EUB0000618a MYLK4; details: at 10 µM
T2 sequence (whole entry): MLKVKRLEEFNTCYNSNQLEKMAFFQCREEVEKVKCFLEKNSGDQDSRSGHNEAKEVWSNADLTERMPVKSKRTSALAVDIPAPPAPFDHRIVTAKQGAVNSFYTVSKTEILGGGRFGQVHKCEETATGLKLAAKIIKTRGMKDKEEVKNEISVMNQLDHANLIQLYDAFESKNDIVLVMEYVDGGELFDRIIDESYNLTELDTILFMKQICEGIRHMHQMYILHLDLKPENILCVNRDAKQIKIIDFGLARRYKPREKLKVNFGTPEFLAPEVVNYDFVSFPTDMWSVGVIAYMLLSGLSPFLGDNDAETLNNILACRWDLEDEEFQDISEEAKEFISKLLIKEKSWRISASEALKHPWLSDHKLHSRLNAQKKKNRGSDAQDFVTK

[8] = biological target: T3, Kinase suppressor of Ras 1 (Homo sapiens) (UniProt Q8IVT5); experiment: Selectivity interaction (ActivX KiNativ screen (kinase selectivity in THP-1 cell lysates)) EUB0000639a KSR1; type: subcellular; details: lysate
T3 sequence (whole entry): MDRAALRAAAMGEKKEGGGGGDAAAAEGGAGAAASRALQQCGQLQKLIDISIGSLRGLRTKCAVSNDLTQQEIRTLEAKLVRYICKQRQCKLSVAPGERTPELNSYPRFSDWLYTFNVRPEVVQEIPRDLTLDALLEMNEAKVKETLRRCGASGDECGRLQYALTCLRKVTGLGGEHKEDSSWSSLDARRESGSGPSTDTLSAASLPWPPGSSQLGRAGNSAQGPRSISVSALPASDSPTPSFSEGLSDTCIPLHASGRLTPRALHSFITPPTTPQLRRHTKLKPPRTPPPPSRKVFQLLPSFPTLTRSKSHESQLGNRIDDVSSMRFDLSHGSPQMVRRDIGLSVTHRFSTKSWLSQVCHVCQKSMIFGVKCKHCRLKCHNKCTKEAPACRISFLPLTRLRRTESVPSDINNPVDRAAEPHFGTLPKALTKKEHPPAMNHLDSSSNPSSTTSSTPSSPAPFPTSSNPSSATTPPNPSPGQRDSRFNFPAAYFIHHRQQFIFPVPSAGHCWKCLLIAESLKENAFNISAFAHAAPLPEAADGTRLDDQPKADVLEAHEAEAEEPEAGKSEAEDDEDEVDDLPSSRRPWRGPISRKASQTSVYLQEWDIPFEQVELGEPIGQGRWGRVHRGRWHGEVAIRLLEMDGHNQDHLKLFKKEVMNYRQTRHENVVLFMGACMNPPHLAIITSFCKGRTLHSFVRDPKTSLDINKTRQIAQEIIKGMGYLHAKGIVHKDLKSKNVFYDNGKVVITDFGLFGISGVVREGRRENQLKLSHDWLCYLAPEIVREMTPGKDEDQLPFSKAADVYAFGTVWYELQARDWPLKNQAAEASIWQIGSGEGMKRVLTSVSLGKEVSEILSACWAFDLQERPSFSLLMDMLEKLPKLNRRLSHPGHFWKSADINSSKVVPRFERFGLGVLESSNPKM

[9] = biological target: STE20-like serine/threonine-protein kinase (Homo sapiens, UniProt Q9H2G2); experiment: Selectivity interaction (ActivX KiNativ screen (kinase selectivity in THP-1 cell lysates)) EUB0000639a SLK; type: subcellular; details: lysate, at 0.2 µM
STE20-like serine/threonine-protein kinase, sequence (Q9H2G2 whole entry, looked up): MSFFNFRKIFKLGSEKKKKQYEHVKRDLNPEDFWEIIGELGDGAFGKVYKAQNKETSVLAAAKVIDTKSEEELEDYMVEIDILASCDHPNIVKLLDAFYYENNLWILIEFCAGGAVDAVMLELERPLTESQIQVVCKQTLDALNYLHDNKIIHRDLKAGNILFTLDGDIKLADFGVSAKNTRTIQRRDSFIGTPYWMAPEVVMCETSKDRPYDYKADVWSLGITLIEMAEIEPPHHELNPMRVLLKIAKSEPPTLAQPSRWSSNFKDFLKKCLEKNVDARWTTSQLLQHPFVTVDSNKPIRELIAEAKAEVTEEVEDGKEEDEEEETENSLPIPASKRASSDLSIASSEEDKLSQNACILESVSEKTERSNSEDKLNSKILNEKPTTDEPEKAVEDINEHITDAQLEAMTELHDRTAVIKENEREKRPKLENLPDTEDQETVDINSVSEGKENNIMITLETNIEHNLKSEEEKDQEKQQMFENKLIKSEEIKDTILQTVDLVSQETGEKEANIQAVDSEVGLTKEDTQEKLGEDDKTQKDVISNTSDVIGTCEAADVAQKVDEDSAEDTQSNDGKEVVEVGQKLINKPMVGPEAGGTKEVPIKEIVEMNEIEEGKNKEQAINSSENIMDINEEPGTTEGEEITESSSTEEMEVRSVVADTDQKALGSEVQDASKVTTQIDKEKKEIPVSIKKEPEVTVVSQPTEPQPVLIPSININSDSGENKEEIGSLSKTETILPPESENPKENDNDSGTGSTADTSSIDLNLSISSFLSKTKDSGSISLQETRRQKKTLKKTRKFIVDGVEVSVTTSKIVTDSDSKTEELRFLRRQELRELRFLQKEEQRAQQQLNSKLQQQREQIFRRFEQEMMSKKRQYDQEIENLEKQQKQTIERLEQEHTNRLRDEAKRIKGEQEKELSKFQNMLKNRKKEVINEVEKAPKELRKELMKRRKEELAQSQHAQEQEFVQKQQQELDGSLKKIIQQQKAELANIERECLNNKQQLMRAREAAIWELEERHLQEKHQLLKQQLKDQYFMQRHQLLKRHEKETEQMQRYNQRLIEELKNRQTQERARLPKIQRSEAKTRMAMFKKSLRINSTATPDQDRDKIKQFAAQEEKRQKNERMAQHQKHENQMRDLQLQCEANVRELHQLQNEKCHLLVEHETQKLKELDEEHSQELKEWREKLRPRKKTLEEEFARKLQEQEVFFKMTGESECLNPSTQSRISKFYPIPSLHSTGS

[10] = biological target: Interleukin-1 receptor-associated kinase 1 (Homo sapiens) (UniProt P51617); experiment: Selectivity interaction (KinomeScan (DiscoverX)) EUB0000655a IRAK1; details: at 10 µM
Interleukin-1 receptor-associated kinase 1 (Homo sapiens), sequence (P51617 whole entry, looked up): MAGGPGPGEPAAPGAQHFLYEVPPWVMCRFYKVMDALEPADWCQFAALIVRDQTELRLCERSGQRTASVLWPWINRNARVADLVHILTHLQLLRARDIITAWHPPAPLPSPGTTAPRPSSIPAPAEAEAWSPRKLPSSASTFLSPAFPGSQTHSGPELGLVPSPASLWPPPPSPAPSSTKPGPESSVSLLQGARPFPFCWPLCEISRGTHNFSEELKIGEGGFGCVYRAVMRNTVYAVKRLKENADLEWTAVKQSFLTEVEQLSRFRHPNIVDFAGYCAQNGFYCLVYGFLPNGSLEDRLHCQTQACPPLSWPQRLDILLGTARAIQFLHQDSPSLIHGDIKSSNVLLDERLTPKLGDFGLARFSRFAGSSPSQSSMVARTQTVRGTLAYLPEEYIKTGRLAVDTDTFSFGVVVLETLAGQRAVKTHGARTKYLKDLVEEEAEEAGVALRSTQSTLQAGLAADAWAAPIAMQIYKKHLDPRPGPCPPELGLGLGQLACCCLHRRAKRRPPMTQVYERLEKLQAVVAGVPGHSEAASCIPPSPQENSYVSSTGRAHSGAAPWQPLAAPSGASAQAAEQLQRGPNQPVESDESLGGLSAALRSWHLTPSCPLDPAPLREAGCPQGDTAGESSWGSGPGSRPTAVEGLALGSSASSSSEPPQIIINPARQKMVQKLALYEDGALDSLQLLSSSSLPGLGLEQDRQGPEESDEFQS

Structure (SMILES): COCC(=O)NC/C=C/c1ccc2ncnc(Nc3ccc(Oc4ccc(C)nc4)c(C)c3)c2c1 [CP-724714]
- % of control [1]: 100%

Structure (SMILES): CCC(=O)N1CC[C@H](Nc2ncnc3c2CN(c2cnc(OC)c(C(F)(F)F)c2)CC3)C1 [LENIOLISIB]
- IC50 [2]: > 30 µM

Structure (SMILES): C=CC(=O)Nc1cccc(C(=O)Nc2ccc(Nc3cc(-c4[nH]c(SC)nc4C)ccn3)cc2)c1
- % of control ([3]; at 1 µM): 100%
- % of control ([3]; at 5 µM): 88%

Structure (SMILES): N#Cc1cccc(-c2c[nH]c3ncnc(N4CCOCC4)c23)c1
- % of inhibition [4]: 3%

Structure (SMILES): CNC(=O)Nc1ccc(-c2nc(N3CC4CCC(C3)O4)c3cnn(C4CCC5(CC4)OCCO5)c3n2)cc1
- % of inhibition [5]: 5%
- % of inhibition [6]: 2%

Structure (SMILES): O[C@H]1CC[C@H](Nc2ncc3nc(Nc4c(F)cc(F)cc4F)n([C@H]4CCOC4)c3n2)CC1
- % of control [7]: 100%

Structure (SMILES): CC[C@@H]1[C@H](F)C(=O)N[C@@H]1COc1nccc2cc(C(N)=O)c(OC)cc12 [ZIMLOVISERTIB]
- % of inhibition ([8]; at 0.01 µM): 2.4%
- % of inhibition ([8]; at 0.04 µM): -6.6%
- % of inhibition ([8]; at 0.2 µM): -8.6%
- % of inhibition ([8]; at 1 µM): -32.8%
- % of inhibition ([8]; at 5 µM): -57.9%
- % of inhibition [9]: -1.2%

Structure (SMILES): CN(C)CCOc1ccc(-c2nc(-c3ccncc3)c(-c3ccc4c(c3)CC/C4=N\O)[nH]2)cc1
- % of control [10]: 16%
